Measured values as given in ChEMBL document CHEMBL5604063, “ASAP - DENV-2 NS2B-NS3 protease fluorescence dose response” (2024).
“And” between values parts separate entries of the source, which are not always exact repeats. Equal values may be shown once.

What was measured:
Genome polyprotein [1] = molecular target: T1, Genome polyprotein (dengue virus type 2, UniProt P29990); format: functional, Thailand/16681/1984
Genome polyprotein [2] = molecular target: T1, Genome polyprotein; format: functional, Thailand/16681/1984; remark: listed apart in the source

T1 sequence (P29990 1346-1475 limits assumed): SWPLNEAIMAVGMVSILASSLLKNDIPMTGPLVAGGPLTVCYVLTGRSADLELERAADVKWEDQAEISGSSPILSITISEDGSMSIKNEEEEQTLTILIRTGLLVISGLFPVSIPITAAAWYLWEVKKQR
T1 sequence (P29990 1476-2093 limits assumed): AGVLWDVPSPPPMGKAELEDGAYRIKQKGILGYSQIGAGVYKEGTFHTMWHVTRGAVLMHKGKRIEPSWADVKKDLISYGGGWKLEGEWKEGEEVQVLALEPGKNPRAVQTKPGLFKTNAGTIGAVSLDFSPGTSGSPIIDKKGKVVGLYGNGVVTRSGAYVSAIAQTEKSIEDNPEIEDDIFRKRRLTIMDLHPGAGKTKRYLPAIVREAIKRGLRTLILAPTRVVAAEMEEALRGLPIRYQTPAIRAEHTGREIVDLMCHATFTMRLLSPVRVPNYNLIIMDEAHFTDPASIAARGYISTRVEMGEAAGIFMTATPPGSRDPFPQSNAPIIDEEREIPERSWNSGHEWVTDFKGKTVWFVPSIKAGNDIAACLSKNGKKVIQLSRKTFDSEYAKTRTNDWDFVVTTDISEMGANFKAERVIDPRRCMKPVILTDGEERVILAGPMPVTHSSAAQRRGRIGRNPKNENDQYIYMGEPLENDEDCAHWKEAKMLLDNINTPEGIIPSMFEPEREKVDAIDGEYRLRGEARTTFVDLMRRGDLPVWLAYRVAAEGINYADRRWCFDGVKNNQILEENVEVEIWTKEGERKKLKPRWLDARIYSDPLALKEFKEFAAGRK

Which IC50 (Genome polyprotein [1]) does the source give for `CN(c1ccc2c(c1)CNC2)[C@H](C(=O)NCC(F)F)c1cc(Cl)cc(C2CC2)c1` here?
The IC50 was greater than 99.5 µM.

What about the IC50 (Genome polyprotein [2]) of the same compound?
The IC50 was greater than 100 µM.

Which results are given for `COC1CCN(C(=O)c2ccnc(NC(=O)c3cc(C4CC4)n(C)c3C)c2)CC1`?
IC50 (Genome polyprotein [1]): > 99.5 µM; IC50 (Genome polyprotein [2]): > 100 µM

How did the IC50 (Genome polyprotein [1]) turn out when `O=C(Nc1ccc2c(c1)CNC2)c1cc(F)cc2[nH]c(-c3cnc(C4CC4)o3)nc12` was run?
Its IC50 is greater than 49.7 µM.

And the IC50 (Genome polyprotein [2])?
The IC50 was greater than 100 µM.

Which results are given for `O=C(NCC(F)F)[C@H](Nc1ccc2c(c1)CNC2)c1cc(Cl)ccc1Sc1ccccc1`?
IC50 (Genome polyprotein [1]): > 99.5 µM; IC50 (Genome polyprotein [2]): > 100 µM

How did the IC50 (Genome polyprotein [1]) turn out when `O=C1Cc2c(cccc2C(=O)Nc2cc3c(cn2)OCCO3)N1` was run?
Its IC50 is greater than 99.5 µM.

And the IC50 (Genome polyprotein [2])?
The IC50 was greater than 100 µM.

`Cc1c(C(=O)Nc2cc(C(=O)N[C@H]3CNC(=O)C3)ccn2)cc(C2CC2)n1C` was tested. Which IC50 (Genome polyprotein [1]) did it give?
Its IC50 is greater than 99.5 µM.

What about the IC50 (Genome polyprotein [2]) of the same compound?
Its IC50 is greater than 100 µM.

Which results are given for `Cc1c(C(=O)Nc2cc(C(=O)N3CCC[C@H]3C(N)=O)ccn2)cc(C2CC2)n1C`?
IC50 (Genome polyprotein [1]): > 99.5 µM; IC50 (Genome polyprotein [2]): > 100 µM

Which IC50 (Genome polyprotein [1]) does the source give for `COC1CN(C(=O)c2ccnc(NC(=O)c3cc(C4CC4)n(C)c3C)c2)C1` here?
The IC50 was greater than 99.5 µM.

What about the IC50 (Genome polyprotein [2]) of the same compound?
The IC50 was greater than 100 µM.

What does the source list for `Cc1cc(C(=O)Nc2ccc3c(c2)CNC3)cc2nc[nH]c12`?
IC50 (Genome polyprotein [1]): > 99.5 µM; IC50 (Genome polyprotein [2]): > 100 µM

How did the IC50 (Genome polyprotein [1]) turn out when `O=C(Nc1ccc2c(c1)CNC2)c1ccc2[nH]cc(C3CCNCC3)c2c1` was run?
Its IC50 is 19.5 µM and 31.3 µM.

And the IC50 (Genome polyprotein [2])?
Its IC50 is 75.9 µM.

For `COCc1cc(Cl)cc([C@H](Nc2ccc3c(c2)CNC3)C(=O)NCC(F)F)c1`, which IC50 (Genome polyprotein [1]) is on record?
The IC50 was greater than 99.5 µM.

What about the IC50 (Genome polyprotein [2]) of the same compound?
The IC50 was greater than 100 µM.

For `O=C(NCC(F)F)[C@H](Nc1ccc2c(c1)CNC2)c1cc(Cl)ccc1Cl`, which IC50 (Genome polyprotein [1]) is on record?
Its IC50 is greater than 99.5 µM.

What about the IC50 (Genome polyprotein [2]) of the same compound?
Its IC50 is greater than 100 µM.

What does the source list for `N#Cc1ccc(-c2nc3c(C(=O)Nc4ccc5c(c4)CNC5)cc(F)cc3[nH]2)cc1`?
IC50 (Genome polyprotein [1]): 2.9 µM and 2.52 µM; IC50 (Genome polyprotein [2]): 11.3 µM and 10.2 µM

For `O=C(Nc1cc(-c2cccnc2)ccn1)c1cc(C2CC2)[nH]c(=O)c1`, which IC50 (Genome polyprotein [1]) is on record?
The IC50 was greater than 99.5 µM.

What about the IC50 (Genome polyprotein [2]) of the same compound?
The IC50 was greater than 100 µM.

What does the source list for `C=CC[C@H]1c2ccc(NC(=O)c3cc(Br)cc4[nH]ccc34)cc2CN1C(=O)OC(C)(C)C`?
IC50 (Genome polyprotein [1]): > 99.5 µM; IC50 (Genome polyprotein [2]): > 100 µM

`COc1cccc(-c2nc3c(C(=O)Nc4ccc5c(c4)CNC5)cc(F)cc3[nH]2)c1` was tested. Which IC50 (Genome polyprotein [1]) did it give?
Its IC50 is 8.12 µM and 5.22 µM.

What about the IC50 (Genome polyprotein [2]) of the same compound?
Its IC50 is greater than 100 µM.

With `CCNC(=O)c1ccnc(NC(=O)c2cc(C3CC3)n(C)c2C)c1` as the compound, how does the IC50 (Genome polyprotein [1]) read?
The IC50 was greater than 99.5 µM.

What about the IC50 (Genome polyprotein [2]) of the same compound?
Its IC50 is greater than 100 µM.

What does the source list for `O=C1Cc2c(cccc2C(=O)N[C@H]2COc3cc(Br)cnc32)N1`?
IC50 (Genome polyprotein [1]): > 99.5 µM; IC50 (Genome polyprotein [2]): > 100 µM

What does the source list for `O=C(Nc1ccc2c(c1)CNC2)c1cc(F)cc2[nH]c(CC[C@H]3CCCOC3)nc12`?
IC50 (Genome polyprotein [1]): 76.2 µM; IC50 (Genome polyprotein [2]): > 100 µM

With `O=C(NCC(F)F)[C@H](Nc1ccc2c(c1)CNC2)c1cccc(Cl)c1` as the compound, how does the IC50 (Genome polyprotein [1]) read?
The IC50 was greater than 99.5 µM.

And the IC50 (Genome polyprotein [2])?
The IC50 was greater than 100 µM.

With `O=C1Cc2c(cccc2C(=O)Nc2ccn(C[C@H]3CCOC3)n2)N1` as the compound, how does the IC50 (Genome polyprotein [1]) read?
Its IC50 is greater than 99.5 µM.

And the IC50 (Genome polyprotein [2])?
The IC50 was greater than 100 µM.

How did the IC50 (Genome polyprotein [1]) turn out when `Cc1cc(N2CCC(NC(=O)c3cccc4c3CC(=O)N4)CC2)[nH]n1` was run?
The IC50 was greater than 99.5 µM.

What about the IC50 (Genome polyprotein [2]) of the same compound?
The IC50 was greater than 100 µM.

Which IC50 (Genome polyprotein [1]) does the source give for `CCO[C@@H]1CC[C@H]1NC(=O)c1cccc2c1CC(=O)N2` here?
The IC50 was greater than 99.5 µM.

What about the IC50 (Genome polyprotein [2]) of the same compound?
Its IC50 is greater than 100 µM.

`N[C@H]1COC[C@H]1n1cc(C(=O)Nc2cc(-c3cccnc3)ccn2)cn1` was tested. Which IC50 (Genome polyprotein [1]) did it give?
Its IC50 is greater than 99.5 µM.

And the IC50 (Genome polyprotein [2])?
Its IC50 is greater than 100 µM.

With `O=C1Cc2c(cccc2C(=O)N[C@H]2CCc3ncsc3C2)N1` as the compound, how does the IC50 (Genome polyprotein [1]) read?
Its IC50 is greater than 99.5 µM.

And the IC50 (Genome polyprotein [2])?
Its IC50 is greater than 100 µM.

Which results are given for `Cc1c(C(=O)Nc2cc(C(=O)N[C@H]3CCOC3)ccn2)cc(C2CC2)n1C`?
IC50 (Genome polyprotein [1]): > 99.5 µM; IC50 (Genome polyprotein [2]): > 100 µM

What does the source list for `Cc1c(C(=O)Nc2cc(C(=O)N3C[C@@H]4[C@H](O)[C@@H]4C3)ccn2)cc(C2CC2)n1C`?
IC50 (Genome polyprotein [1]): > 99.5 µM; IC50 (Genome polyprotein [2]): > 100 µM

Which results are given for `Cc1c(C(=O)Nc2cc(C(=O)N3CC[C@H](C(N)=O)C3)ccn2)cc(C2CC2)n1C`?
IC50 (Genome polyprotein [1]): > 99.5 µM; IC50 (Genome polyprotein [2]): > 100 µM

What does the source list for `CCOCC1(c2nc3c(C(=O)Nc4ccc5c(c4)CNC5)cc(F)cc3[nH]2)CC1`?
IC50 (Genome polyprotein [1]): > 99.5 µM; IC50 (Genome polyprotein [2]): > 100 µM

For `O=C1Cc2c(cccc2C(=O)NC2CCC3(CC2)COC3)N1`, which IC50 (Genome polyprotein [1]) is on record?
The IC50 was greater than 99.5 µM.

What about the IC50 (Genome polyprotein [2]) of the same compound?
Its IC50 is greater than 100 µM.

`NCc1cccc(-c2csc3cc(C(=O)Nc4ccc5c(c4)CNC5)ccc23)c1` was tested. Which IC50 (Genome polyprotein [1]) did it give?
Its IC50 is 22.4 µM and 14.7 µM.

And the IC50 (Genome polyprotein [2])?
Its IC50 is greater than 100 µM.

What does the source list for `O=C(Nc1ccc2c(c1)CNC2)c1cc(F)cc2[nH]c(-c3cccc(F)c3)nc12`?
IC50 (Genome polyprotein [1]): 4.86 µM and 4.62 µM; IC50 (Genome polyprotein [2]): 44.1 µM and 36 µM

Which IC50 (Genome polyprotein [1]) does the source give for `O=C1Cc2c(cccc2C(=O)N[C@H]2C[C@@H](c3ncc[nH]3)C2)N1` here?
Its IC50 is greater than 99.5 µM.

And the IC50 (Genome polyprotein [2])?
The IC50 was greater than 100 µM.

What does the source list for `Cc1c(C(=O)Nc2cc(C(=O)N[C@H]3CCNC3=O)ccn2)cc(C2CC2)n1C`?
IC50 (Genome polyprotein [1]): > 99.5 µM; IC50 (Genome polyprotein [2]): > 100 µM

What does the source list for `Cc1c(C(=O)Nc2cc(C(=O)N3CC[C@H]3CO)ccn2)cc(C2CC2)n1C`?
IC50 (Genome polyprotein [1]): > 99.5 µM; IC50 (Genome polyprotein [2]): > 100 µM

With `CC(C)n1cnc2cc(C(=O)Nc3ccc4c(c3)CNC4)ccc21` as the compound, how does the IC50 (Genome polyprotein [1]) read?
Its IC50 is greater than 99.5 µM.

What about the IC50 (Genome polyprotein [2]) of the same compound?
The IC50 was greater than 100 µM.

Which results are given for `O=C1Cc2c(cccc2C(=O)NC2CCN(c3nccs3)CC2)N1`?
IC50 (Genome polyprotein [1]): > 99.5 µM; IC50 (Genome polyprotein [2]): > 100 µM

Which results are given for `Cc1c(C(=O)Nc2cc(C(=O)Nc3cccnc3)ccn2)cc(C2CC2)n1C`?
IC50 (Genome polyprotein [1]): > 99.5 µM; IC50 (Genome polyprotein [2]): > 100 µM

Which results are given for `O=C(NCC(F)F)[C@H](Nc1ccc2c(c1)CNC2)c1cccc2c1CCC2`?
IC50 (Genome polyprotein [1]): > 99.5 µM; IC50 (Genome polyprotein [2]): > 100 µM

What does the source list for `O=C(NCC(F)F)[C@H](Nc1ccc2c(c1)CNC2)c1cc(Cl)cc(Cl)c1Cl`?
IC50 (Genome polyprotein [1]): > 99.5 µM; IC50 (Genome polyprotein [2]): > 100 µM

What does the source list for `CCc1cc2c(cc1NC(=O)c1cc(F)cc3[nH]ncc13)CNC2`?
IC50 (Genome polyprotein [1]): > 99.5 µM; IC50 (Genome polyprotein [2]): > 100 µM
